The values below come from ChEMBL document CHEMBL4196029, “New MD2 inhibitors derived from curcumin with improved anti-inflammatory activity” (Eur J Med Chem, 2018).

Each structure is given as a SMILES string. Calls of active or inactive are those of the source. The rule behind the calls is not given here.

Data set [1] can be described thus: Chemical stability in pH 7.4 phosphate buffer at 20 uM measured at 5 mins time intervals for 25 mins by UV absorbance spectroscopic method. Type of data set: physicochemical. The conditions noted are these: pH 7.4, 25 min.
Data set [2] deals with Peritoneal macrophage. The data set can be described thus: Anti-inflammatory activity in C57BL/6 mouse primary peritoneal macrophages assessed as inhibition of LPS-induced IL-6 secretion at 10 uM preincubated for 30 mins followed by LPS addition measured after 24 hrs by ELISA relative to control. Type of data set: functional. To be noted: C57BL/6, Peritoneal macrophage.
Data set [3] concerns Peritoneal macrophage. Put plainly: Anti-inflammatory activity in C57BL/6 mouse primary peritoneal macrophages assessed as inhibition of LPS-induced TNFalpha secretion at 1 to 10 uM preincubated for 30 mins followed by LPS addition measured after 24 hrs by ELISA. Type of data set: functional, cell-based.
The subject of data set [4] is Peritoneal macrophage. Put plainly: Anti-inflammatory activity in C57BL/6 mouse primary peritoneal macrophages assessed as inhibition of LPS-induced IL-6 secretion at 2.5 uM preincubated for 30 mins followed by LPS addition measured after 24 hrs by ELISA relative to control. The conditions noted are these: C57BL/6, Peritoneal macrophage. Type of data set: functional.

Data set [5] relates to Peritoneal macrophage. The data set can be described thus: Inhibition of LPS-induced TNFalpha mRNA expression in C57BL/6 mouse primary peritoneal macrophages at 10 uM preincubated for 30 mins followed by LPS addition measured after 24 hrs by qRT-PCR analysis. Type of data set: functional, cell-based.
Data set [6] deals with Peritoneal macrophage. The data set can be described thus: Inhibition of LPS-induced COX2 mRNA expression in C57BL/6 mouse primary peritoneal macrophages at 10 uM preincubated for 30 mins followed by LPS addition measured after 24 hrs by qRT-PCR analysis. Type of data set: functional, cell-based.
Data set [7] deals with Rattus norvegicus. Put plainly: Anti-inflammatory activity in Sprague-Dawley rat model of LPS-induced acute lung injury assessed as reduction in neutrophil extravasation in lungs by measuring tissue myeloperoxidase activity at 20 mg/kg, po administered daily for 1 week followed by LPS addition at 30 mins post last dose measured after 6 hrs by spectrophotometric method. The class given is functional. Further details: scale not given: the % may be the effect or the level left.

The subject of data set [8] is Rattus norvegicus. Put plainly: Anti-inflammatory activity in Sprague-Dawley rat model of LPS-induced acute lung injury assessed as reduction in IL-6 mRNA level in lungs at 20 mg/kg, po administered daily for 1 week followed by LPS addition at 30 mins post last dose measured after 6 hrs by qRT-PCR method. Type of data set: functional, organism-based.
The test system of a further data set is Mus musculus. Put plainly: Anti-inflammatory activity in C57BL/6 mouse model of LPS-induced sepsis assessed as survival at 10 mg/kg, iv administered 15 mins prior to LPS treatment measured for 7 days (reference value: 10 to 30%). The class given is functional. The conditions noted are these: C57BL/6, iv.
For data set [9], the target named is Mitogen-activated protein kinase 1 (Homo sapiens) (UniProt P28482). The data set can be described thus: Inhibition of recombinant human full length N-terminal GST-tagged ERK2 (1 to 360 end residues) expressed in Escherichia coli at 10 uM after 1 hr by caliper mobility shift assay relative to control.
Data set [10] addresses Interleukin-1 receptor-associated kinase 1 (Homo sapiens) (UniProt P51617). The data set can be described thus: Inhibition of recombinant human N-terminal GST-tagged IRAK1 (194 to 712 residues) expressed in baculovirus expression system at 10 uM after 1 hr by caliper mobility shift assay relative to control.
For data set [11] the target is unchanged. The data set can be described thus: Inhibition of recombinant human N-terminal GST-tagged IRAK1 (194 to 712 residues) expressed in baculovirus expression system at 0.1 uM after 1 hr by caliper mobility shift assay relative to control.
For data set [12], the system named is Rattus norvegicus. The data set can be described thus: Anti-inflammatory activity in Sprague-Dawley rat model of LPS-induced acute lung injury assessed as reduction in IL-1beta mRNA level in lungs at 20 mg/kg, po administered daily for 1 week followed by LPS addition at 30 mins post last dose measured after 6 hrs by qRT-PCR method. The class given is functional, organism-based.

In data set [13] the test system is Rattus norvegicus. Put plainly: Anti-inflammatory activity in Sprague-Dawley rat model of LPS-induced acute lung injury assessed as reduction in TNFalpha level in BALF at 20 mg/kg, po administered daily for 1 week followed by LPS addition at 30 mins post last dose measured after 6 hrs by ELISA. The class given is functional, organism-based.
Data set [14] has as its system Rattus norvegicus. The data set can be described thus: Anti-inflammatory activity in Sprague-Dawley rat model of LPS-induced acute lung injury assessed as reduction in TNFalpha level in serum at 20 mg/kg, po administered daily for 1 week followed by LPS addition at 30 mins post last dose measured after 6 hrs by ELISA. Type of data set: functional, organism-based.

The test system of data set [15] is Rattus norvegicus. Put plainly: Anti-inflammatory activity in Sprague-Dawley rat model of LPS-induced acute lung injury assessed as reduction in ICAM1 mRNA level in lungs at 20 mg/kg, po administered daily for 1 week followed by LPS addition at 30 mins post last dose measured after 6 hrs by qRT-PCR method. The class given is functional, organism-based.
The test system of data set [16] is Rattus norvegicus. Put plainly: Anti-inflammatory activity in Sprague-Dawley rat model of LPS-induced acute lung injury assessed as reduction in VCAM1 mRNA level in lungs at 20 mg/kg, po administered daily for 1 week followed by LPS addition at 30 mins post last dose measured after 6 hrs by qRT-PCR method. Type of data set: functional, organism-based.

Sequence of Interleukin-1 receptor-associated kinase 1 (Homo sapiens) (P51617 whole entry, looked up, the tested form may be a part): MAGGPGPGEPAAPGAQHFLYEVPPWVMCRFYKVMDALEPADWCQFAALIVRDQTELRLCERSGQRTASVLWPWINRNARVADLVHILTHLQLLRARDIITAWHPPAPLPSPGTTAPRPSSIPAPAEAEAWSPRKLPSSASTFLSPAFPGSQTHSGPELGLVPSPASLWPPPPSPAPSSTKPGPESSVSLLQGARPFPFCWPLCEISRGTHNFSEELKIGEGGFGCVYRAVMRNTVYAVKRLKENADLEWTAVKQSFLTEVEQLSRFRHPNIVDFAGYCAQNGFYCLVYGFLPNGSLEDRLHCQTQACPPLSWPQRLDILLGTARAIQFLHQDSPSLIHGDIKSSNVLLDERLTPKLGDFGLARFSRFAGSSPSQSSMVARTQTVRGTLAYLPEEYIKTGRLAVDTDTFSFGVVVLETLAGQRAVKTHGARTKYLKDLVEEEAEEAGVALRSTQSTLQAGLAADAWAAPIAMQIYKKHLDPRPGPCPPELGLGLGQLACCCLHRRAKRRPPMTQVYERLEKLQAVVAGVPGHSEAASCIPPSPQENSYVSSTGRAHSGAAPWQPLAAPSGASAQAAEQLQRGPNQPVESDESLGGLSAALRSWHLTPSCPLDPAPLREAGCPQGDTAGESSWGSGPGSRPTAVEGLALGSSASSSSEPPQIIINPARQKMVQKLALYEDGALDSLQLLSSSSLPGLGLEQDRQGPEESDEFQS
Sequence of Mitogen-activated protein kinase 1 (Homo sapiens) (P28482 whole entry, the tested form may be a part): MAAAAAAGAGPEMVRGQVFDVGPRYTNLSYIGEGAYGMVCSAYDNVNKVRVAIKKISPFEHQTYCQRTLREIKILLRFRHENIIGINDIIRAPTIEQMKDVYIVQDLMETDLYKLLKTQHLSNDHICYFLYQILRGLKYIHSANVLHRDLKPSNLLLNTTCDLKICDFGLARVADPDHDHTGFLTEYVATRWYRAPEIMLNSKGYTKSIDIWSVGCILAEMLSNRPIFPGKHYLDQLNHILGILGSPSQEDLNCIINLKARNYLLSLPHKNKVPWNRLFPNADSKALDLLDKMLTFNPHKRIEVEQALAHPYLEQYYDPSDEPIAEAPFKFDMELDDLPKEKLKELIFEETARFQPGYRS

`COc1cc(/C=C2\COC/C(=C\c3cc(OC)c(OC)c(OC)c3)C2=O)cc(OC)c1OC`: in data set [1], the Stability result is recorded as “Stable”. In addition, the inhibition at 10 µM in the data set with Peritoneal macrophage [2] is above 90%. Besides, the inhibition result in the data set with Peritoneal macrophage [3], in the data set with Peritoneal macrophage [5] and with Peritoneal macrophage [6] was “Active” throughout. Further, the inhibition at 2.5 µM in the data set on Peritoneal macrophage [4] was above 50%. Also, the Activity in the data set on Rattus norvegicus [7] is reported as 40%. Besides, the result in the data set on Rattus norvegicus [8] was Active. For the same compound, the survival at 10 mg/kg in the data set with Mus musculus was 70%. Besides, the inhibition was 7.4% in [9], 3.6% in data set [10] and 15.9% in data set [11].
Turning to `COc1cc(/C=C2\CN(C)C/C(=C\c3cc(OC)c(OC)c(OC)c3)C2=O)cc(OC)c1OC`, the outcome in the data set with Rattus norvegicus [12], in the data set on Rattus norvegicus [13], in the data set on Rattus norvegicus [14], with Rattus norvegicus [8], in the data set on Rattus norvegicus [15] and in the data set on Rattus norvegicus [16] was Active. In addition, the Stability entry in [1] is on record as “Stable”. In the data set on Peritoneal macrophage [2], the inhibition at 10 µM was above 90%. For the same compound, the inhibition entry in the data set on Peritoneal macrophage [3], in the data set with Peritoneal macrophage [5] and in the data set with Peritoneal macrophage [6] was “Active” throughout. Moreover, the inhibition at 2.5 µM in the data set with Peritoneal macrophage [4] is above 50%. Also, the Activity in the data set on Rattus norvegicus [7] stood at 40%. Also, the survival at 10 mg/kg with Mus musculus stood at 90%. Also, the results for the inhibition in data set [9], in [10] and in [11] were 8.7%, 0.5% and 7.7%, respectively.
